Laboratory results from ChEMBL document CHEMBL5385942, “C3-Symmetric ligands in drug design: An overview of the challenges and opportunities ahead” (Bioorg Med Chem Lett, 2024).
Values belong to the compound of their own block, whether it stands above or below them.

Legend:
[1] = Growth inhibition of human NCI cells; assay type: functional
HeLa = assay: Cytotoxicity against human HeLa cells assessed as inhibition of cell growth incubated for 24 hrs by MTT assay; assay type: functional, cell-based
MDA-MB-468 = assay: Antiproliferative activity against human MDA-MB-468 cells assessed as inhibition of cell growth; assay type: functional, cell-based
Human betaherpesvirus 5 = assay: Antiviral activity against HCMV infected in HFF cells assessed as reduction in viral replication; assay type: functional, organism-based; conditions: Human betaherpesvirus 5, HFF
Micrococcus luteus = assay: Antimicrobial activity against Micrococcus luteus ATCC 9341 assessed as zone of inhibition by […]; assay type: functional; for IZ: test concentration or dose not given here
Bacillus subtilis = assay: Antimicrobial activity against Bacillus subtilis MTCC 441 assessed as zone of inhibition by […]; assay type: functional; for IZ: test concentration or dose not given here
Escherichia coli = assay: Antimicrobial activity against Escherichia coli ATCC 25922 assessed as zone of inhibition by […]; assay type: functional
HepG2 = assay: Cytotoxicity against human HepG2 cells assessed as inhibition of cell growth incubated for 24 to 48 hrs by MTT assay; assay type: functional, cell-based
A549 = assay: Antiproliferative activity against human A549 cells assessed as inhibition of cell growth incubated for 24 hrs by SRB assay; assay type: functional, cell-based; conditions: A549, 24 h
LNCaP = assay: Antiproliferative activity against human LNCaP cells assessed as inhibition of cell growth incubated for 24 hrs by SRB assay; assay type: functional, cell-based
MCF7 = assay: Antiproliferative activity against human MCF7 cells assessed as inhibition of cell growth incubated for 24 hrs by SRB assay; assay type: functional, cell-based; conditions: MCF7, 24 h
Jurkat = assay: Antiproliferative activity against human Jurkat cells assessed as inhibition of cell growth incubated for 24 hrs by SRB assay; assay type: functional, cell-based
T47D = assay: Antiproliferative activity against human T47D cells assessed as inhibition of cell growth incubated for 24 hrs by SRB assay; assay type: functional, cell-based
[2] = Antiproliferative activity against human SW707 cells assessed as inhibition of cell growth incubated for 24 hrs by SRB assay; assay type: functional, cell-based; conditions: SW707, 24 h
Pseudomonas aeruginosa = assay: Antimicrobial activity against Pseudomonas aeruginosa MTCC 741 assessed as zone of inhibition by […]; assay type: functional, organism-based
Staphylococcus aureus = assay: Antimicrobial activity against Staphylococcus aureus MTCC 96 assessed as zone of inhibition by […]; assay type: functional

SMILES: c1ccc(Nc2nc(Nc3ccccn3)nc(Nc3ccccn3)n2)nc1
GI50 [1]: 49800 nM

SMILES: O=C1c2cccc3cccc(c23)C(=O)N1CCCn1c(CCN(CCc2nc3ccccc3n2CCCN2C(=O)c3cccc4cccc(c34)C2=O)CCc2nc3ccccc3n2CCCN2C(=O)c3cccc4cccc(c34)C2=O)nc2ccccc21
IC50 (HeLa): 150000 nM

IC50 (MDA-MB-468): 216000 nM
SMILES: c1ccc(Sc2nc(Sc3ccccn3)nc(Sc3ccccn3)n2)nc1
GI50 [1]: 3170 nM

SMILES: c1ccc(Sc2nc(Sc3ccccc3)nc(Sc3ccccc3)n2)cc1
GI50 [1]: > 100000 nM

SMILES: C[C@@H]1CCC2[C@@H](C)[C@H](OC(=O)CCC(=O)OCC(COC(=O)CCC(=O)O[C@@H]3O[C@@H]4O[C@]5(C)CC[C@H]6[C@H](C)CCC([C@H]3C)[C@@]46OO5)COC(=O)CCC(=O)O[C@@H]3O[C@@H]4O[C@]5(C)CC[C@H]6[C@H](C)CCC([C@H]3C)[C@@]46OO5)O[C@@H]3O[C@]4(C)CC[C@@H]1[C@@]23OO4 (stereo partly drawn)
EC50 (Human betaherpesvirus 5): 530 nM

SMILES: O=C(/C=C/c1ccccc1)c1ccc(Oc2nc(Oc3ccc(C(=O)/C=C/c4ccccc4)cc3)nc(Oc3ccc(C(=O)/C=C/c4ccccc4)cc3)n2)cc1
inhibition zone (IZ) (Micrococcus luteus): 7 mm
inhibition zone (IZ) (Bacillus subtilis): 7 mm
inhibition zone (IZ) (Escherichia coli): 6 mm

SMILES: O=C(N/N=C\c1ccc(N(CCCl)CCCl)cc1)c1cc(C(=O)N/N=C\c2ccc(N(CCCl)CCCl)cc2)cc(C(=O)N/N=C/c2ccc(N(CCCl)CCCl)cc2)c1
IC50 (HepG2): 25 µmol

SMILES: ClCCCN1CCN(c2nc(N3CCN(CCCl)CC3)nc(N3CCN(CCCl)CC3)n2)CC1
IC50 (A549): 620 nM
IC50 (LNCaP): 620 nM
IC50 (MCF7): 18700 nM
IC50 (Jurkat): 620 nM
IC50 (T47D): 620 nM
IC50 [2]: 620 nM

SMILES: O=C(/C=C/c1ccc([N+](=O)[O-])cc1)c1ccc(Oc2nc(Oc3ccc(C(=O)/C=C/c4ccc([N+](=O)[O-])cc4)cc3)nc(Oc3ccc(C(=O)/C=C/c4ccc([N+](=O)[O-])cc4)cc3)n2)cc1
inhibition zone (IZ) (Micrococcus luteus): 7 mm
inhibition zone (IZ) (Bacillus subtilis): 7 mm
inhibition zone (IZ) (Escherichia coli): 6 mm
inhibition zone (IZ) (Pseudomonas aeruginosa): 7 mm

SMILES: NC(=S)N1N=C(c2ccc(Oc3nc(Oc4ccc(C5=NN(C(N)=S)C(c6cccc([N+](=O)[O-])c6)C5)cc4)nc(Oc4ccc(C5=NN(C(N)=S)C(c6cccc([N+](=O)[O-])c6)C5)cc4)n3)cc2)CC1c1cccc([N+](=O)[O-])c1 (stereo not drawn)
inhibition zone (IZ) (Micrococcus luteus): 16 mm
inhibition zone (IZ) (Bacillus subtilis): 13 mm
inhibition zone (IZ) (Staphylococcus aureus): 10 mm
